Results published in patent US20220249525A1, “Fatty Acid Compounds for Prevention and Treatment of Neurodegenerative Disorders” (T OMEGA AS, priority 2019, published 2022).

Legend:
Type in all cases: cell-based
HCC827 cells = experiment: Mitochondria respiration assay (OCR, extracellular flux) in HCC827 cells
Description: Non-small cell lung cancer cells, HCC827 (ATCC) were cultured in RPMI-1640 Glutamax medium (Sigma-Aldrich St. Louis, Mo., USA), under conventional culture conditions. Media was supplemented with 10% Fetal Bovine Serum (FBS), 1% glutamine and 1% streptomycin/penicillin (Sigma-Aldrich). HeLaNRF1/c4 reporter cells were cultured in Dulbecco's Modified Eagle's Medium (DMEM) supplemented with 10% FBS, 2 mM L-Glutamine, 100 u/ml penicillin/streptomycin (Sigma-Aldrich,). Incubation was done at 37° C. in 5% CO2.
Mitochondria function was analyzed by measuring oxygen consumption rate (OCR) by extracellular flux analysis in a Seahorse XFe96 instrument (Agilent Seahorse XF Technologies). The measurements were performed in DADA basic media without phenol red, supplemented with L-glutamine (2 mM), pyruvate (2 mM), and sodium chloride, NaCl (32 mM) (Sigma-Aldrich). Respiratory rates were measured following sequential additions of glucose (10 mM), oligomycin, carbonyl cyanide m-chlorophenyl hydrazine (CCCP) and a mixture of rotenone (1 μM) and antimycin A (1 μM). Before carrying out the measurements for each cell model, optimizations were done for; cell number, CCCP, and oligomycin concentrations. For the HCC 827 cell model optimal conditions were; 30,000 cells/well, 0.5 μM CCCP, and 3 μM Oligomycin; and in HeLaNRF1/c4 reporter cell model; 20,000 cells/well, 1 μM CCCP and 3 μM Oligomycin. The OCR measured initially (before any additions) represented the rate ‘basal respiration.’ The addition of ATP synthase inhibitor oligomycin provided oxygen consumption independent of ATP production (‘leak activity’). Maximal respiration (also referred to as ‘respiratory capacity’) was measured upon addition of the uncoupler CCCP. […] After the extracellular flux analysis the analysis plates were washed with Phosphate Buffered Saline (PBS) and frozen at −80° C. The BCA assay (Pierce BCA protein assay kit, Thermo Fisher Scientific, Waltham, Mass. USA) was employed to measure the protein content in the wells. To evaluate the effects of the different treatments, the respiratory rates from compound-treated wells were normalized to protein content, and calculated as percentage of the average respiratory rate of the DMSO-treated control wells. All treatments were performed with 6-8 replicate wells.

HuH-7 cells = experiment: WST-1 cell viability assay in HuH-7 cells
Description: (§1) The fatty acids (FAs) TTA, tr-TTA, N-TTA, tr-N-TTA and (PA) were complexed with FBS following the same procedure, differing only in final stock concentration, due to variation in solubility. Approximately 0.07 g of FA was weighed in a 10 ml sterile serum tube (BD Vacutainer®, catalog no. 368430) and dissolved in sterile filtrated 0.1 M sodium hydroxide (NaOH) of a volume giving 25 mM FA, controls without FA were made, containing only NaOH and FBS. A syringe (Sterican®, catalog no. 4657577) was pierced through the rubber cap of the serum tube, and the tube was placed in an 80° C. water bath until the FAs were dissolved. Each FA-solution was then diluted in inactivated FBS to stock concentration 1 mM (N-TTA, tr-N-TTA), and 2 mM by adding the FA to a volume of 100% FBS after heating the FBS to 45° C. in a water bath. The transfer of FA to FBS had to be executed controlled and swiftly to avoid the formation of precipitates. If any precipitates in the solution were visible, the FA and a new volume of FBS were reheated, and the procedure performed again. Following successful complexation, the stock solutions were stored at −20° C. in 1 ml aliquots (CryoPure tube, Sarstedt AG & Co, Nümbrecht, Germany).
(§2) The WST-1 cell proliferation assay was performed using the kit from Roche (table 4.2.) and its accompanying procedure (version 16, February 2011) (134). The number of cells seeded to each well in the 96-well plates (Corning Inc., catalog no. 353072) varied depending on the treatment time and cell type (table 3.).
(§3) Cell suspension and medium were then transferred to each well in a volume of 100 μl in total. Subsequently, the plates were incubated for 24 hours to make the cells settle. The next day, 100 μl with FA complexed with FBS or diluted in DMSO was added to row A or B in the 96-well plate to give a defined concentration. The solution was then mixed with a pipette, and 100 μl of the medium with FA was transferred to the next well in the same column, mixed by pipetting up and down at least five times before 100 μl was transferred again to the next well in the column. This procedure was repeated until the second last, or last well in each column was reached, making a series of two-fold dilution of the FAs in the cell medium. Two parallels were performed for every treatment per run. After the addition of FAs, the plates were incubated for 24-96 hours depending on the length of the treatment.
(§4) Following the FA-treatment, the cells were studied under a microscope to ensure that visual observations matched the measured absorbance and cell activity in the assay. Subsequently, 10 μl WST-1 reagent was added to each well, and the plates were incubated for 3 hours. Due to high activity in the HuH-7 cell line, the WST-1 reagent was diluted 1:1 with PBS. Before the measurement of absorbance, the plates were placed on a shaker for 1 minute ensuring thoroughly mixing of the wells. The plates were then put straight into the spectrophotometer (SpectraMax Plus 384 Microplate Reader, Molecular Devices Corporation, San Jose, Calif., USA) to perform the measurements. The accompanying software was used (SoftMax Pro, Molecular Devices Corporation, San Jose, Calif., USA) to obtain the results. The absorbance of the samples was measured at 450 nm, and the reference wavelength was set to 650 nm. For each well, the measured absorption at 650 nm was subtracted from the absorption at 450 nm. The measured absorbance for the treated cells was then compared to the controls (blank) containing only cells and growth medium.

SH-SY5Y cells = experiment: WST-1 cell viability assay in SH-SY5Y cells; conditions: 4 days, 31-125 μM
Description: as §1, §2, §3
as §4, with “The accompanying software was used (SoftMax Pro, Molecular Devices Corporation, San Jose, Calif., USA) to obtain the results.” left out

Q: How did the “leak respiration after oligomycin” value (HCC827 cells; 100 μM TTA, 200 μM 2-triple TTA, 30 μM TDG) turn out when `CCCCCCCCCCCCCCNCC(=O)O` [N-TTA, N-tetradecylglycine] was run?
A: significantly increased

Q: And the “basal respiratory rate (OCR)” value (HCC827 cells; compared to control)?
A: decreased in a dose-dependent manner

Q: What about the “leak respiration after oligomycin” value (HCC827 cells; higher concentrations) of the same compound?
A: reduced leak respiration

Q: And the “WST-1 activity compared to untreated cells” value (HuH-7 cells; 2 days, 16 μM, complexed with FBS)?
A: 116%

Q: What about the “WST-1 activity compared to no treatment” value (HuH-7 cells; 2 days, 125-250 μM) of the same compound?
A: 50-60%

Q: What about the WST-1 activity (HuH-7 cells; 4 days, 1000 μM) of the same compound?
A: The same result was true

Q: What about the “WST-1 activity compared to untreated cells” value (SH-SY5Y cells) of the same compound?
A: about 110%
